From PubChem BioAssay AID2060599 (Molecular Pharmacology Branch, DTP, NCI, 2025)
Several values for one entry are separate records, joined by “and”; a condition that tells them apart may be missing. Equal entries are not always repeated.

Tested on: 817829-284-R-J1-PDC complex spheroids, viability
Assay: Anticancer human tumor 817829-284-R-J1-PDC patient-derived colon adenocarcinoma cell line growth inhibition [CLK]
Settings: for viability, T/C: stronger effect = lower value; active = viability on the fitted dose curve at most 10% of control; inactive = the rest
How it was run: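 Multi-cell-type spheroids combined patient-derived tumor cells with HUVEC endothelial cells and human mesenchymal stem cells. Paired agents were dosed in half-log steps down from about clinical Cmax, or from 10 microM where Cmax was unknown.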

[1] = curve of first compound, second compound 0.0316 µM
[2] = curve of first compound, second compound 0.1 µM
[3] = curve of first compound, second compound 0.316 µM
[4] = curve of first compound, second compound 1 µM
[5] = curve of first compound, second compound 3.16 µM
[6] = curve of first compound, second compound 10 µM
[7] = second compound 0.0316 µM, first compound 0.0316 µM
[8] = second compound 0.0316 µM, first compound 0.1 µM
[9] = second compound 0.0316 µM, first compound 0.316 µM
[10] = second compound 0.0316 µM, first compound 1 µM
[11] = second compound 0.0316 µM, first compound 3.16 µM
[12] = second compound 0.0316 µM, first compound 10 µM
[13] = second compound 0.1 µM, first compound 0.0316 µM
[14] = second compound 0.1 µM, first compound 0.1 µM
[15] = second compound 0.1 µM, first compound 0.316 µM
[16] = second compound 0.1 µM, first compound 1 µM
[17] = second compound 0.1 µM, first compound 3.16 µM
[18] = second compound 0.1 µM, first compound 10 µM
[19] = second compound 0.316 µM, first compound 0.0316 µM
[20] = second compound 0.316 µM, first compound 0.1 µM
[21] = second compound 0.316 µM, first compound 0.316 µM
[22] = second compound 0.316 µM, first compound 1 µM
[23] = second compound 0.316 µM, first compound 3.16 µM
[24] = second compound 0.316 µM, first compound 10 µM
[25] = second compound 1 µM, first compound 0.0316 µM
[26] = second compound 1 µM, first compound 0.1 µM
[27] = second compound 1 µM, first compound 0.316 µM
[28] = second compound 1 µM, first compound 1 µM
[29] = second compound 1 µM, first compound 3.16 µM
[30] = second compound 1 µM, first compound 10 µM
[31] = second compound 3.16 µM, first compound 0.0316 µM
[32] = second compound 3.16 µM, first compound 0.1 µM
[33] = second compound 3.16 µM, first compound 0.316 µM
[34] = second compound 3.16 µM, first compound 1 µM
[35] = second compound 3.16 µM, first compound 3.16 µM
[36] = second compound 3.16 µM, first compound 10 µM
[37] = second compound 10 µM, first compound 0.0316 µM
[38] = second compound 10 µM, first compound 0.1 µM
[39] = second compound 10 µM, first compound 0.316 µM
[40] = second compound 10 µM, first compound 1 µM
[41] = second compound 10 µM, first compound 3.16 µM
[42] = second compound 10 µM, first compound 10 µM
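Note: spheroids exposed to the agents for seven days before readout.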

Cn1ncnc1[C@H]1c2n[nH]c(=O)c3cc(F)cc(c23)N[C@@H]1c1ccc(F)cc1
inactive: viability, T/C (compound 0.000316 µM) 65.2% and 92.2% | viability, T/C (compound 0.001 µM) 93.3% and 76.2% | viability, T/C (compound 0.00316 µM) 50.8% and 73.8% | viability, T/C (compound 0.01 µM) 48.2% and 62.2% | viability, T/C (compound 0.0316 µM) 34.8% and 42% | viability, T/C (compound 0.1 µM) 33.3% and 35.4%
3.4 nM and 22.6 nM: IC50 (curve of compound)

C=CC(=O)N1CCN(c2nc(=O)n(-c3c(C)ccnc3C(C)C)c3nc(-c4c(O)cccc4F)c(F)cc23)C(C)C1 (stereo not given) + CN1CCN(c2cc(C(=O)Nc3cc4cc(-c5cnn(C)c5)ccc4cn3)ccn2)CC1
inactive: viability, T/C [7] 75.7% | viability, T/C [8] 70.6% | viability, T/C [9] 60.9% | viability, T/C [10] 76.9% | viability, T/C [11] 49.6% | viability, T/C [12] 32.2% | viability, T/C [13] 24.9% | viability, T/C [14] 25.4% | viability, T/C [15] 22.4% | viability, T/C [16] 22.8% | viability, T/C [17] 16.1% | viability, T/C [18] 10.7%
active: viability, T/C [19] 2.69% | viability, T/C [20] 2.73% | viability, T/C [21] 3% | viability, T/C [22] 3.05% | viability, T/C [23] 3.47% | viability, T/C [24] 1.56% | viability, T/C [25] 0.15% | viability, T/C [26] 0.15% | viability, T/C [27] 0.22% | viability, T/C [28] 0.15% | viability, T/C [29] 0.1% | viability, T/C [30] 0.16% | viability, T/C [31] 0.16% | viability, T/C [32] 0.28% | viability, T/C [33] 0.2% | viability, T/C [34] 0.16% | viability, T/C [35] 0.51% | viability, T/C [36] 0.15% | viability, T/C [37] 0.08% | viability, T/C [38] 0.11% | viability, T/C [39] 0.12% | viability, T/C [40] 0.13% | viability, T/C [41] 0.12% | viability, T/C [42] 0.13%
< 31.6 nM: IC50 [2] | IC50 [3] | IC50 [4] | IC50 [5] | IC50 [6]
3090 nM: IC50 [1]

COc1c(OCCCN2CCOCC2)ccc2c3n(c(=NC(=O)c4cnc(N)nc4)nc12)CCN3
active: viability, T/C (compound 0.316 µM) 7.17% and 4.92% | viability, T/C (compound 1 µM) 2.06% and 2.01%
11.9 nM and 24.8 nM: IC50 (curve of compound)
inactive: viability, T/C (compound 0.00316 µM) 96% and 133% | viability, T/C (compound 0.01 µM) 52% and 68.5% | viability, T/C (compound 0.0316 µM) 29% and 55.5% | viability, T/C (compound 0.1 µM) 18.8% and 16.3%

COc1cccc2c1C(=O)c1c(O)c3c(c(O)c1C2=O)CC(O)(C(=O)CO)CC3OC1CC(N)C(O)C(C)O1 (stereo not given) + CN1CCN(c2cc(C(=O)Nc3cc4cc(-c5cnn(C)c5)ccc4cn3)ccn2)CC1
active: viability, T/C [9] 3.99% | viability, T/C [10] 0.16% | viability, T/C [11] 0.37% | viability, T/C [12] 1.02% | viability, T/C [15] 2.32% | viability, T/C [16] 0.22% | viability, T/C [17] 0.51% | viability, T/C [18] 0.96% | viability, T/C [19] 1.68% | viability, T/C [20] 0.69% | viability, T/C [21] 0.24% | viability, T/C [22] 0.33% | viability, T/C [23] 0.63% | viability, T/C [24] 0.97% | viability, T/C [25] 0.12% | viability, T/C [26] 0.29% | viability, T/C [27] 0.26% | viability, T/C [28] 0.59% | viability, T/C [29] 0.53% | viability, T/C [30] 0.72% | viability, T/C [31] 0.14% | viability, T/C [32] 0.16% | viability, T/C [33] 0.24% | viability, T/C [34] 0.38% | viability, T/C [35] 0.38% | viability, T/C [36] 0.06% | viability, T/C [37] 0.04% | viability, T/C [38] 0.07% | viability, T/C [39] 0.11% | viability, T/C [40] 0.06% | viability, T/C [41] 0.1% | viability, T/C [42] 0.08%
< 31.6 nM: IC50 [1] | IC50 [2] | IC50 [3] | IC50 [4] | IC50 [5] | IC50 [6]
inactive: viability, T/C [7] 19.4% | viability, T/C [8] 15.6% | viability, T/C [13] 18.2% | viability, T/C [14] 13.4%

Cn1ncnc1[C@H]1c2n[nH]c(=O)c3cc(F)cc(c23)N[C@@H]1c1ccc(F)cc1 + CNC(=O)c1ccc(Nc2nc(OC3CCCC3)c3c(-c4ccc5nc(C)oc5c4)c[nH]c3n2)c(OC)c1
< 0.316 nM: IC50 [1] | IC50 [2] | IC50 [3] | IC50 [4] | IC50 [5] | IC50 [6]
inactive: viability, T/C (second compound 0.0316 µM, first compound 0.000316 µM) 26.6% | viability, T/C (second compound 0.0316 µM, first compound 0.001 µM) 36.8% | viability, T/C (second compound 0.0316 µM, first compound 0.00316 µM) 27.3% | viability, T/C (second compound 0.0316 µM, first compound 0.01 µM) 31.1% | viability, T/C [7] 25.3% | viability, T/C [8] 23.4% | viability, T/C (second compound 0.1 µM, first compound 0.000316 µM) 20.5% | viability, T/C (second compound 0.1 µM, first compound 0.001 µM) 21.1% | viability, T/C (second compound 0.1 µM, first compound 0.00316 µM) 24.7% | viability, T/C (second compound 0.1 µM, first compound 0.01 µM) 23.5% | viability, T/C [13] 22.3% | viability, T/C [14] 18.2% | viability, T/C (second compound 0.316 µM, first compound 0.000316 µM) 24.1% | viability, T/C (second compound 0.316 µM, first compound 0.001 µM) 17.5% | viability, T/C (second compound 0.316 µM, first compound 0.00316 µM) 20.2% | viability, T/C (second compound 0.316 µM, first compound 0.01 µM) 21.6% | viability, T/C [19] 18.6% | viability, T/C [20] 15.3% | viability, T/C (second compound 1 µM, first compound 0.000316 µM) 18.1% | viability, T/C (second compound 1 µM, first compound 0.001 µM) 20.1% | viability, T/C (second compound 1 µM, first compound 0.00316 µM) 14.9% | viability, T/C (second compound 1 µM, first compound 0.01 µM) 17.3% | viability, T/C [25] 22% | viability, T/C [26] 12.1% | viability, T/C (second compound 3.16 µM, first compound 0.000316 µM) 24.5% | viability, T/C (second compound 3.16 µM, first compound 0.001 µM) 19.9% | viability, T/C (second compound 3.16 µM, first compound 0.00316 µM) 27.6% | viability, T/C (second compound 3.16 µM, first compound 0.01 µM) 14.3% | viability, T/C [31] 16.7% | viability, T/C [32] 15.8% | viability, T/C (second compound 10 µM, first compound 0.000316 µM) 16.8% | viability, T/C (second compound 10 µM, first compound 0.001 µM) 13.4% | viability, T/C (second compound 10 µM, first compound 0.00316 µM) 21.9% | viability, T/C (second compound 10 µM, first compound 0.01 µM) 18.4% | viability, T/C [37] 16% | viability, T/C [38] 18.1%
